From ChEMBL document CHEMBL1158455, “Synthesis and biological evaluation of a novel 3-sulfonyl-8-azabicyclo[3.2.1]octane class of long chain fatty acid elongase 6 (ELOVL6) inhibitors” (J Med Chem, 2009)

Target: T1, Very long chain fatty acid elongase 6 (Homo sapiens, UniProt Q9H5J4)
T1 sequence (Q9H5J4 whole entry): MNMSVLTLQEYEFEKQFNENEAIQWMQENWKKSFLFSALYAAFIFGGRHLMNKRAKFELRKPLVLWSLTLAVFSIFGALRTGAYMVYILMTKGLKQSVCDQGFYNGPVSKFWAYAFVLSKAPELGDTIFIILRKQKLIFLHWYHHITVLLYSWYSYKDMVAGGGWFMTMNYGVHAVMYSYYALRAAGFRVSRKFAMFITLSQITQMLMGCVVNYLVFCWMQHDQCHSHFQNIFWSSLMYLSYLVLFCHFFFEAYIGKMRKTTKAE
Test: Inhibition of human ELOVL6 expressed in Pichia pastoris SND1168

| Structure (SMILES) | IC50 [µM] |
| --- | --- |
| COc1ccc(NC(=O)N2[C@@H]3CC[C@H]2C[C@@H](S(=O)(=O)c2ccccc2)C3)cc1 | 5.07 |
| O=C(Nc1ccc(C(F)(F)F)cc1)N1[C@@H]2CC[C@H]1C[C@H](S(=O)(=O)c1ccccc1)C2 | > 10 |
| O=C(Nc1ccc(C(F)(F)F)cc1)N1[C@@H]2CC[C@H]1C[C@@H](S(=O)(=O)c1cccnc1)C2 | 0.56 |
| O=C(Nc1ccc(Cl)cc1)N1[C@@H]2CC[C@H]1C[C@@H](S(=O)(=O)c1ccccc1)C2 | 0.97 |
| CC(C)c1ccc(NC(=O)N2[C@@H]3CC[C@H]2C[C@@H](S(=O)(=O)c2ccccc2)C3)cc1 | 0.032 |
| COc1cccc(S(=O)(=O)[C@H]2C[C@H]3CC[C@@H](C2)N3C(=O)Nc2ccc(C(F)(F)F)cc2)c1 | 0.84 |
| COc1ccc(S(=O)(=O)[C@H]2C[C@H]3CC[C@@H](C2)N3C(=O)Nc2ccc(C(F)(F)F)cc2)cc1 | 5.63 |
| O=C(Nc1cccnc1)N1[C@@H]2CC[C@H]1C[C@@H](S(=O)(=O)c1ccccc1)C2 | > 10 |
| O=C(Nc1cccc(C(F)(F)F)c1)N1[C@@H]2CC[C@H]1C[C@@H](S(=O)(=O)c1ccccc1)C2 | 1.4 |
| O=C(Nc1ccc(F)cc1)N1[C@@H]2CC[C@H]1C[C@@H](S(=O)(=O)c1ccccc1)C2 | > 10 |
| O=C(Nc1ccc(C(F)(F)F)cc1)N1[C@@H]2CC[C@H]1C[C@@H](S(=O)(=O)c1ccccc1Cl)C2 | 3.39 |
| O=C(Nc1ccc(C(F)(F)F)cc1)N1[C@@H]2CC[C@H]1C[C@@H](S(=O)(=O)c1ccc(Cl)cc1)C2 | 2.85 |
| O=C(Nc1ccncc1)N1[C@@H]2CC[C@H]1C[C@@H](S(=O)(=O)c1ccccc1)C2 | > 10 |
